Read-outs that look alike come from different tables or passages of the source.
Columns and labels:
[1] = human, in vivo, po; cited from earlier work
[2] = Pharmacokinetics of artesunate (AS) in plasma after multiple intravenous doses, compartmental analysis (Phase 1b); format: in vivo, human; settings: for Total AUCD1-D3: days 1-3; for half-life / AUC(0-inf) / Cmax / clearance / MRT / AUC: iv; for clearance: read-out: CL_obs; for AUC: 2-8 mg/kg iv, read-out: Mean AUC of AS, range over doses
Procedure: The study was a double blind, ascending multiple doses, alternating group, safety, tolerance, and PK study. […] When the injection was completed, the study nurse recorded tolerance of injection to include both inspection of site and subjects’ responses. Subjects were provided a light lunch at approximately 4 hours after dosing. Normal activities, excluding strenuous exercise, were permitted four hours after dosing. […] During the multiple-dose period, samples were collected immediately before morning dose on days 2 and 3 for additional trough values. All the samples were stored at −80 °C until shipment and were then shipped to a bio-analytical GLP laboratory, Midwest Research Institute (MRI), in Kansas City, MO, USA. The human use protocol numbers for the Phase 1 trial are: USUHS #G183RW; WRIAR #1128; and HSRRB #A-13276.
The analytes were extracted from human plasma with ethyl acetate. […] The reconstituted extracts were analysed on a Micromass Quattro II Mass Spectrometer in the positive ion electrospray ionization (+ESI) mode. […] This method employed a Varian Pursuit C18 column (150 x 2.0 mm, 5-μm particle size) and a gradient elution with the following mobile phases: A: 10 mM ammonium acetate in water with 1% formic acid and B: 10 mM ammonium acetate in acetonitrile with 1% formic acid, for the chromatographic separation.
Calibration standards and QC samples were analysed to evaluate the performance of the assay.
Compartmental (model-dependent) and non-compartment (model-independent) PK analysis are common methods to determine PK parameters, which are acceptable by FDA [21]. In order to compare only the clinically relevant concentrations, the compartmental PK analysis was selected for PK analysis in this study and based on a short-term (2 min) intravenous infusion in accordance with a previous PK evaluation. […] The input of the drug was assumed to follow zero-order kinetics, and elimination from the central compartment occurred with first-order kinetics. Compartmental analysis of concentration-time data for parent drug was performed using the WinNonlin software with an intravenous infusion program. The first-order method with logarithmic transformation of all drug-concentration data was used throughout.
The drug plasma concentrations at the end of an intravenous (IV) infusion (Cmax) were calculated from the corresponding model equations (IV-infusion model, WinNonlin) at the respective time points. The AUC(0-t) (where t = the time point for the last sample on the PK profile in which quantifiable drug was detected) was estimated using linear or linear/log trapezoidal calculations. […] A drug accumulation index was estimated from the AUC values on day 3 (last multiple dose administration) divided by the AUC on day 1 (first multiple dose administration).

[3] = human, in vivo, cited from earlier work
[4] = system: severe falciparum malaria; settings: AQUAMAT, cited from earlier work
[5] = Tolerability and safety of multiple intravenous AS doses in healthy volunteers; format: in vivo, human
Procedure: The study was a double blind, ascending multiple doses, alternating group, safety, tolerance, and PK study. Injectable AS daily for three days was administered intravenously to three groups of the subjects using alternating doses of 2, 4, and 8 mg. All eight subjects in each dose group received either the AS (six subjects) or placebo (two subjects) in a pre-randomized manner. The study physician, after verifying the code with a study nurse, would then inject either the drug or placebo into an injection port at the pre-measured dose over about 2 min as a short-term intravenous infusion; the study nurse recorded the time of study drug reconstitution, infusion start and completion of injection. When the injection was completed, the study nurse recorded tolerance of injection to include both inspection of site and subjects’ responses. Subjects were provided a light lunch at approximately 4 hours after dosing. Normal activities, excluding strenuous exercise, were permitted four hours after dosing. […] During the multiple-dose period, samples were collected immediately before morning dose on days 2 and 3 for additional trough values. All the samples were stored at −80 °C until shipment and were then shipped to a bio-analytical GLP laboratory, Midwest Research Institute (MRI), in Kansas City, MO, USA. The human use protocol numbers for the Phase 1 trial are: USUHS #G183RW; WRIAR #1128; and HSRRB #A-13276.

[6] = system: severe falciparum malaria; settings: SEAQUAMAT, cited from earlier work
[7] = human, plasma, 2 mg/kg, Day 1, AS 2 mg/kg iv daily for 3 days, 2 min infusion, mean (CV%), n = 6, CA
[8] = human, plasma, 2 mg/kg, Day 2, AS 2 mg/kg iv daily for 3 days, 2 min infusion, mean (CV%), n = 6, CA
[9] = human, plasma, 2 mg/kg, Day 3, AS 2 mg/kg iv daily for 3 days, 2 min infusion, mean (CV%), n = 6, CA
[10] = human, plasma, 4 mg/kg, Day 1, AS 4 mg/kg iv daily for 3 days, 2 min infusion, mean (CV%), n = 6, CA
[11] = human, plasma, 4 mg/kg, Day 2, AS 4 mg/kg iv daily for 3 days, 2 min infusion, mean (CV%), n = 6, CA
[12] = human, plasma, 4 mg/kg, Day 3, AS 4 mg/kg iv daily for 3 days, 2 min infusion, mean (CV%), n = 6, CA
[13] = human, plasma, 8 mg/kg, Day 1, AS 8 mg/kg iv daily for 3 days, 2 min infusion, mean (CV%), n = 6, CA
[14] = human, plasma, 8 mg/kg, Day 2, AS 8 mg/kg iv daily for 3 days, 2 min infusion, mean (CV%), n = 6, CA
[15] = human, plasma, 8 mg/kg, Day 3, AS 8 mg/kg iv daily for 3 days, 2 min infusion, mean (CV%), n = 6, CA
[16] = severe malaria patients, intravenous treatment
[17] = 2, 4, 8 mg/kg iv daily for three days

C[C@H]1[C@H](OC(=O)CCC(=O)O)O[C@@H]2O[C@@]3(C)CC[C@H]4[C@H](C)CC[C@@H]1[C@@]24OO3 [AS, 4-(10’dihydro-artemisinin-oxymethyl) succinate]
Cmax and AUC on the last dose day as compared to the first day [1]: about one-third to one-seventh
Tmax ([2]; Day 1, AS 2 mg/kg iv daily for 3 days, 2 min infusion, n = 6, CA): 2 min
Tmax ([2]; Day 1, AS 4 mg/kg iv daily for 3 days, 2 min infusion, n = 6, CA): 2 min
Tmax ([2]; Day 1, AS 8 mg/kg iv daily for 3 days, 2 min infusion, n = 6, CA): 2 min
Tmax ([2]; Day 3, AS 2 mg/kg iv daily for 3 days, 2 min infusion, n = 6, CA): 2 min
Tmax ([2]; Day 3, AS 4 mg/kg iv daily for 3 days, 2 min infusion, n = 6, CA): 2 min
Tmax ([2]; Day 3, AS 8 mg/kg iv daily for 3 days, 2 min infusion, n = 6, CA): 2 min
peak concentrations of AS, range ([2]; all days, 2, 4, 8 mg/kg iv doses): 16,487-74,588 ng/ml
Total AUCD1-D3 ([2]; AS 2 mg/kg iv daily for 3 days, mean (CV%), n = 6): 4731 (40) ng·h/ml
Total AUCD1-D3 ([2]; AS 4 mg/kg iv daily for 3 days, mean (CV%), n = 6): 10787 (17) ng·h/ml
Total AUCD1-D3 ([2]; AS 8 mg/kg iv daily for 3 days, mean (CV%), n = 6): 18606 (45) ng·h/ml
half-life ([2]; human, in vivo, 2 mg/kg, Day 1, AS 2 mg/kg iv daily for 3 days, 2 min infusion, mean (CV%), n = 6, CA, read-out: t1/2 elimination (converted)): 9.6 min
half-life ([2]; human, in vivo, 2 mg/kg, Day 2, AS 2 mg/kg iv daily for 3 days, 2 min infusion, mean (CV%), n = 6, CA, read-out: t1/2 elimination (converted)): 11.4 min
half-life ([2]; human, in vivo, 2 mg/kg, Day 3, AS 2 mg/kg iv daily for 3 days, 2 min infusion, mean (CV%), n = 6, CA, read-out: t1/2 elimination (converted)): 9 min
half-life ([2]; human, in vivo, 4 mg/kg, Day 1, AS 4 mg/kg iv daily for 3 days, 2 min infusion, mean (CV%), n = 6, CA, read-out: t1/2 elimination (converted)): 12.6 min
half-life ([2]; human, in vivo, 4 mg/kg, Day 2, AS 4 mg/kg iv daily for 3 days, 2 min infusion, mean (CV%), n = 6, CA, read-out: t1/2 elimination (converted)): 13.8 min
half-life ([2]; human, in vivo, 4 mg/kg, Day 3, AS 4 mg/kg iv daily for 3 days, 2 min infusion, mean (CV%), n = 6, CA, read-out: t1/2 elimination (converted)): 12 min
half-life ([2]; human, in vivo, 8 mg/kg, Day 1, AS 8 mg/kg iv daily for 3 days, 2 min infusion, mean (CV%), n = 6, CA, read-out: t1/2 elimination (converted)): 12 min
half-life ([2]; human, in vivo, 8 mg/kg, Day 2, AS 8 mg/kg iv daily for 3 days, 2 min infusion, mean (CV%), n = 6, CA, read-out: t1/2 elimination (converted)): 11.4 min
half-life ([2]; human, in vivo, 8 mg/kg, Day 3, AS 8 mg/kg iv daily for 3 days, 2 min infusion, mean (CV%), n = 6, CA, read-out: t1/2 elimination (converted)): 12 min
AUC(0-inf) [2, 7]: 2050 ng·h/mL
Cmax [2, 7]: 28400 ng/mL
clearance [2, 7]: 21.2 mL/min/kg
MRT ([2]; human, plasma, 2 mg/kg, Day 1, AS 2 mg/kg iv daily for 3 days, 2 min infusion, mean (CV%), n = 6, CA, read-out: MRT): 4.8 min
AUC(0-inf) [2, 8]: 1410 ng·h/mL
Cmax [2, 8]: 17900 ng/mL
clearance [2, 8]: 29.5 mL/min/kg
MRT ([2]; human, plasma, 2 mg/kg, Day 2, AS 2 mg/kg iv daily for 3 days, 2 min infusion, mean (CV%), n = 6, CA, read-out: MRT): 4.8 min
AUC(0-inf) [2, 9]: 1270 ng·h/mL
Cmax [2, 9]: 16500 ng/mL
clearance [2, 9]: 27.9 mL/min/kg
MRT ([2]; human, plasma, 2 mg/kg, Day 3, AS 2 mg/kg iv daily for 3 days, 2 min infusion, mean (CV%), n = 6, CA, read-out: MRT): 4.2 min
AUC(0-inf) [2, 10]: 4640 ng·h/mL
Cmax [2, 10]: 40600 ng/mL
clearance [2, 10]: 19.4 mL/min/kg
MRT ([2]; human, plasma, 4 mg/kg, Day 1, AS 4 mg/kg iv daily for 3 days, 2 min infusion, mean (CV%), n = 6, CA, read-out: MRT): 4.8 min
AUC(0-inf) [2, 11]: 2630 ng·h/mL
Cmax [2, 11]: 34400 ng/mL
clearance [2, 11]: 27.3 mL/min/kg
MRT ([2]; human, plasma, 4 mg/kg, Day 2, AS 4 mg/kg iv daily for 3 days, 2 min infusion, mean (CV%), n = 6, CA, read-out: MRT): 4.8 min
AUC(0-inf) [2, 12]: 3520 ng·h/mL
Cmax [2, 12]: 51200 ng/mL
clearance [2, 12]: 23 mL/min/kg
MRT ([2]; human, plasma, 4 mg/kg, Day 3, AS 4 mg/kg iv daily for 3 days, 2 min infusion, mean (CV%), n = 6, CA, read-out: MRT): 4.8 min
AUC(0-inf) [2, 13]: 6020 ng·h/mL
Cmax [2, 13]: 63700 ng/mL
clearance [2, 13]: 27.9 mL/min/kg
MRT ([2]; human, plasma, 8 mg/kg, Day 1, AS 8 mg/kg iv daily for 3 days, 2 min infusion, mean (CV%), n = 6, CA, read-out: MRT): 6 min
AUC(0-inf) [2, 14]: 6670 ng·h/mL
Cmax [2, 14]: 74600 ng/mL
clearance [2, 14]: 26.7 mL/min/kg
MRT ([2]; human, plasma, 8 mg/kg, Day 2, AS 8 mg/kg iv daily for 3 days, 2 min infusion, mean (CV%), n = 6, CA, read-out: MRT): 4.8 min
AUC(0-inf) [2, 15]: 5920 ng·h/mL
Cmax [2, 15]: 67600 ng/mL
clearance [2, 15]: 28.9 mL/min/kg
MRT ([2]; human, plasma, 8 mg/kg, Day 3, AS 8 mg/kg iv daily for 3 days, 2 min infusion, mean (CV%), n = 6, CA, read-out: MRT): 5.4 min
MRT ([2]; human, plasma, 8 mg/kg, range during three days of treatment, 2, 4, 8 mg/kg iv doses, read-out: mean residence time of AS, range): 4.2 to 4.8 min
half-life ([2]; human, plasma, 8 mg/kg, range of means over three days and 2, 4, 8 mg/kg iv doses, read-out: mean elimination half-life of AS, range): 9 to 13.8 min
AUC ([2]; human, plasma, day 1): 2050 to 6020 ng·h/mL
AUC ([2]; human, plasma, day 3): 1270 to 5920 ng·h/mL
Tmax ([2]; human, plasma, Day 2, AS 2 mg/kg iv daily for 3 days, 2 min infusion, n = 6, CA, read-out: Tmax (converted)): 2 min
Tmax ([2]; human, plasma, Day 2, AS 4 mg/kg iv daily for 3 days, 2 min infusion, n = 6, CA, read-out: Tmax (converted)): 2 min
Tmax ([2]; human, plasma, Day 2, AS 8 mg/kg iv daily for 3 days, 2 min infusion, n = 6, CA, read-out: Tmax (converted)): 2 min
mean peak level (Cmax) ([3]; iv): 11,343 ng/ml
Cmax ([3]; po): 1052 ng/mL
mortality rate [4, 16]: 8.5%
reduction of mortality versus quinine [4]: 22.5%
dose dependence of adverse events [5, 17]: no dose-dependent increases in any adverse events
haemodynamic or ECG effects [5, 17]: No deleterious haemodynamic or ECG effects were seen
other laboratory abnormalities [5, 17]: no other clinically significant laboratory abnormalities detected
duration of transient sensation of altered or unusual taste ([5]; associated with higher doses of AS, all cases): less than 30 minutes
tolerability ([5]; daily iv for three days, doses up to 8 mg/kg, healthy volunteers): well tolerated and no serious side effects were observed and safe
reticulocyte count ([5]; peaked four days after dosing, returned to normal by study day 7 in most cases, day 10 in all): dose-related decrease
mortality rate [6, 16]: 15%
reduction of mortality versus quinine [6]: 35%

Source: publication PMC3468400, “Pharmacokinetic profiles of artesunate following multiple intravenous doses of 2, 4, and 8 mg/kg in healthy volunteers: Phase 1b study” (Malaria Journal, 2012)
